For four compounds, Abtot/Ab42 selectivity ranges and IC50 results are on record in patent US9932354B2, “Imidazo-oxadiazole and imidazo-thiadiazole derivatives” (Ares Trading S.A., priority 2012, dated 2018).

For experiment [1], the system named is Amyloid-β peptide release (AβTotal), HEK cells overexpressing APP (HEK-APP). The experiment in a line: Amyloid-β peptide release (AβTotal) assay, AlphaLISA on supernatant of HEK-APP cells. Type of experiment: cell-based. The conditions noted are these: ratio Abtot vs Ab42, HEK-APP cells, 24 h. In general terms: Alpha assays give light when donor and acceptor beads are brought close together.

For experiment [2], the system named is Amyloid-β peptide release (Aβ42), HEK cells overexpressing APP (HEK-APP). The experiment in a line: Amyloid-β peptide release (Aβ42) assay, AlphaLISA on supernatant of HEK-APP cells. It counts as cell-based. The settings on record: Homo sapiens, HEK293, 24 h incubation with compound, read-out: Ab42 IC50 Ranges. In short, it runs like this:
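HEK-APP cells treated with compounds for 24 h at 37 °C, 5% CO2. Supernatant Aβ42 or total Aβ measured by AlphaLISA after 4.5 h with antibody beads (6E10 acceptor beads for total). IC50 values derived.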

The structures appear in SMILES notation.

For `Cc1ncc2sc(C(=O)N3CCCC3c3ccccc3Cl)nn12` (centres unmarked) [Example 122, [2-(2-Chloro-phenyl)-pyrrolidin-1-yl]-(5-methyl-imidazo[5,1-b][1,3,4]thiadiazol-2-yl)-methanone], the Abtot/Ab42 selectivity ranges result in experiment [1] was “d (d: 10 fold > selectivity)”. The IC50 (commonly the concentration that gives 50% inhibition) in experiment [2] lay within 1000 to 2200 nM.
As for `CCOc1ccc(CC(=O)Nc2ccc(-c3nn4c(C)ncc4o3)cc2)cc1` [Example 8, 2-(4-Ethoxy-phenyl)-N-[4-(5-methyl-imidazo[5,1-b][1,2,4]oxadiazol-2-yl)-phenyl]-acetamide], the Abtot/Ab42 selectivity ranges result in experiment [1] was “c (c: 50 fold > selectivity ≥ 10 fold)”. Besides, the IC50 in experiment [2] was 1000 to 2200 nM.
Taken in the same sequence, the figures for `Cc1ncc2oc(-c3ccc(NC(=O)Cc4ccc(OC(F)(F)F)cc4)cc3)nn12` [Example 6, N-[4-(5-Methyl-imidazo[5,1-b][1,2,4]oxadiazol-2-yl)-phenyl]-2-(4-trifluoromethoxy-phenyl)-acetamide] were “c (c: 50 fold > selectivity ≥ 10 fold)” and 500 to 1000 nM.
The matching figures for `Cc1ncc2sc(C(=O)N3CCCCC3c3ccccc3)nn12` (centres unmarked) [Example 108, (5-Methyl-imidazo[5,1-b][1,3,4]thiadiazol-2-yl)-(2-phenyl-piperidin-1-yl)-methanone]: “d (d: 10 fold > selectivity)” and 500 to 1000 nM.
